{"source": "patent US20200383969A1", "about": "“RIMEGEPANT FOR CGRP RELATED DISORDERS” (Biohaven Pharmaceutical Holding Company Ltd., priority 2018, published 2020)", "key": {"[1]": {"assay": "Pooled liver function test profile, Studies 301 and 302", "format": "in vivo, human", "conditions": "pooled Studies 301+302; n = 1089", "experimental": "Results from Clinical Trials—The study results from the clinical studies described in Example 2 and Example 3 are set forth in FIG. 1, FIG. 2 and Table 2, Table 3 and Table 4.\n(§1) In a double-blind, randomized, placebo-controlled, multicenter study (Study 301, NCT03235479) adults ≥18 years of age with at least a 1-year history of ICHD 3-beta migraine were eligible to participate. Following a 3- to 28-day screening period, subjects were randomized to receive rimegepant 75 mg or matching placebo and instructed to treat a single migraine attack with 1 dose of the blinded study drug (rimegepant or placebo) when headache pain reached moderate or severe intensity. The coprimary endpoints were pain freedom at 2 hours postdose and freedom from the most bothersome symptom (MBS) at 2 hours postdose. Safety assessments included adverse events (AEs), ECGs, vital signs, physical measurements, and routine laboratory tests, including assessment of liver function. Unless stated otherwise, values presented are mean ±SD.\nas §1, with “302, NCT03237845)” for “301, NCT03235479)”"}, "[2]": {"assay": "Study 201 (BHV3000-201), open label long-term safety study, rimegepant 75 mg, interim analysis", "format": "in vivo, human", "from_the_text": "Clinical Trial-BHV3000-201: Open Label Safety Study in Acute Treatment of Migraine (ClinicalTrials.gov Identifier: NCT 03266588) • Study Type: Interventional (Clinical Trial) • Estimated Enrollment: 2000 participants • Intervention Model: Single Group Assignment • Masking: None (Open Label) • Primary Purpose: Treatment • Official Title: A Multicenter, Open Label Long-Term Safety Study of BHV3000 in the Acute Treatment of Migraine • Actual Study Start Date: Aug. 30, 2017 • Estimated Primary Completion Date: July 2019 • Estimated Study Completion Date: July 2019 • 1. To assess the safety and tolerability of rimegepant (BHV-3000) by measuring the frequency and severity of adverse events and discontinuations due to adverse events [Time Frame: 52 weeks] Number of subjects with treatment-emergent adverse events as assessed through laboratory tests, ECGs, physical exam findings (safety and tolerability) • 1. ALT or […] with total bilirubin>2×ULN [Time Frame: 52 weeks] elevated liver function tests • 2. hepatic related adverse events and hepatic related adverse events that lead to discontinuation [Time Frame: 52 weeks] adverse events related to liver Results from the clinical trial described in Example 10 are summarized as follows. […] Patients were allowed to treat migraine attacks of all severities (mild to severe) up to once daily for a full year. The initial results for hepatic safety and tolerability of rimegepant 75 mg in study participants is based upon review of both adverse events and regularly scheduled liver function tests. Interim hepatic data were reviewed by an external and independent panel of liver experts. […] In the aggregate, it was noted that compared to migraine trials with drugs other than rimegepant, there was a very low incidence of overall elevations of liver function test abnormalities in rimegepant treated patients (1.0% incidence of serum ALT or AST>3× ULN). Subjects will continue to participate in Study 201 with additional data analyses to be submitted in the NDA and required 120-day safety updates. In addition to the interim safety analysis, data from subjects was assessed to determine reductions in the number of headache days per month."}}}
{"molecule": "N[C@@H]1c2cccnc2[C@H](OC(=O)N2CCC(n3c(=O)[nH]c4ncccc43)CC2)CC[C@H]1c1cccc(F)c1F", "note": "[Rimegepant, [(5S,6S,9R)-5-amino-6-(2,3-difluorophenyl)-6,7,8,9-tetrahydro-5H-cyclohepta[b]pyridin-9-yl] 4-(2-oxo-3H-imidazo[4,5-b]pyridin-1-yl)piperidine-1-carboxylate]", "values": [{"measurement": "ALT >3 × ULN, subjects", "setting": "[1]", "result": 0.1, "unit": "%"}, {"measurement": "ALT >ULN, subjects", "setting": "[1]", "result": 2.0, "unit": "%"}, {"measurement": "AST >3 × ULN, subjects", "setting": "[1]", "result": 0.1, "unit": "%"}, {"measurement": "AST >ULN, subjects", "setting": "[1]", "result": 1.1, "unit": "%"}, {"measurement": ">=30.0% decrease in migraines (headache days) per month, percent of subjects", "setting": "[2]; Study 201, Overall, n 1731, treatment vs observation phase", "result": 30.2, "unit": "%"}, {"measurement": "Onset of reductions in the mean number of headache days per month", "setting": "[2]; Study 201, continued in subsequent months", "result": "as early as the first month"}, {"measurement": "Hy's Law cases", "setting": "[2]; Study 201 interim", "result": "no Hy's Law cases"}, {"measurement": "Incidence of serum ALT or AST>3× ULN", "setting": "[2]; Study 201 interim", "result": 1.0, "unit": "%"}, {"measurement": "Safety and tolerability of long-term dosing", "setting": "[2]; Study 201 interim analysis, 75 mg up to once daily", "result": "consistent with the profile observed in phase 1-3 studies to date"}, {"measurement": "Liver safety signal", "setting": "[2]; Study 201 interim, including near-daily dosing (≥15 doses/month)", "result": "no liver safety signal detected"}, {"measurement": "Liver cases assessed as probably related to study drug", "setting": "[2]; Study 201 interim, independent panel of liver experts", "result": "no liver cases"}]}
